Data on 23 compounds can be found in patent publication US8530493B2, “Indolopyridines as Eg5 kinesin modulators” (4SC AG, priority 2006, dated 2013).

Some results are limits rather than exact numbers.

The test system of this test is RKO p21 uninduced (proliferating) colon adenocarcinoma cells. Kind of test: Alamar Blue cell viability assay, RKO p21 uninduced (proliferating). It is filed as cell-based. The note with it: Homo sapiens, Table B3, anti-proliferative/cytotoxic activity, 72 hours, read-out: −log EC50 RKO p21 uninduced (proliferating) (converted). The essentials:
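RKO p21 or p27 subclones grown without Ponasterone A, i.e. proliferating, exposed 24 h after seeding to semi-log compound dilutions in DMEM/10% FCS (1% DMSO controls) for 72 h at 37° C. Alamar Blue fluorescence (544/590 nm) read relative to untreated cells; EC50 from dose-response curves, given as −log EC50 (mol/l).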
(In general: The colour change of resazurin is a common sign of viable cells or microbes.)

Usually EC50 stands for the concentration needed to bring the measured effect to its halfway point. As for `CNCCCN1C(=O)N2[C@H](c3cccc(O)c3)c3[nH]c4ccc(Br)cc4c3C[C@@]2(C)C1=O` (racemic) [Example 211, (3aSR,10RS)-6-Bromo-10-(3-hydroyx-phenyl)-3a-methyl-2-(3-methylamino-propyl)-3a,4,9,10-tetrahydro-2,9,10a-triaza-cyclopenta[b]fluorene-1,3-dione], the EC50 is ≤ 39.8 nM.

For the compound `CCN(C)CCN1C(=O)N2[C@H](c3cccc(O)c3)c3[nH]c4cc(F)c(OC)cc4c3C[C@@]2(C)C1=O` (racemic) [Example 257, (3aSR,10RS)-2-[2-(Ethyl-methyl-amino)-ethyl]-7-fluoro-10-(3-hydroxy-phenyl)-6-methoxy-3a-methyl-3a,4,9,10-tetrahydro-2,9,10a-triaza-cyclopenta[b]fluorene-1,3-dione], the EC50 is 39.8 to 251 nM.

Regarding `COc1ccc2[nH]c3c(c2c1)C[C@@]1(C)C(=O)N(CCCCl)C(=O)N1[C@@H]3c1cccc(O)c1` [Example 55a, (3aS,10R)-2-(3-Chloro-propyl)-10-(3-hydroxy-phenyl)-6-methoxy-3a-methyl-3a,4,9,10-tetrahydro-2,9,10a-triaza-cyclopenta[b]fluorene-1,3-dione], the EC50 was 39.8 to 251 nM.

For the compound `CCN(C)CCCN1C(=O)N2[C@H](c3cccc(O)c3)c3[nH]c4ccc(Br)cc4c3C[C@@]2(C)C1=O` (racemic) [Example 216, (3aSR,10RS)-6-Bromo-2-[3-(ethyl-methyl-amino)-propyl]-10-(3-hydroxy-phenyl)-3a-methyl-3a,4,9,10-tetrahydro-2,9,10a-triaza-cyclopenta[b]fluorene-1,3-dione], the EC50 was ≤ 39.8 nM.

`COc1cc2c3c([nH]c2cc1F)[C@@H](c1cccc(O)c1)N1C(=O)N(CCN2CC=CC2)C(=O)[C@]1(C)C3` (racemic) [Example 262, (3aSR,10RS)-2-[2-(2,5-Dihydro-pyrrol-1-yl)-ethyl]-7-fluoro-10-(3-hydroxy-phenyl)-6-methoxy-3a-methyl-3a,4,9,10-tetrahydro-2,9,10a-triaza-cyclopenta[b]fluorene-1,3-dione]: the EC50 is 39.8 to 251 nM.

As for `C[C@@]12Cc3c([nH]c4cc(F)c(Cl)cc34)[C@@H](c3cccc(O)c3)N1C(=O)N(CCCN1CC=CC1)C2=O` (racemic) [Example 477, (3aSR,10RS)-6-Chloro-2-[3-(2,5-dihydro-pyrrol-1-yl)-propyl]-7-fluoro-10-(3-hydroxy-phenyl)-3a-methyl-3a,4,9,10-tetrahydro-2,9,10a-triaza-cyclopenta[b]fluorene-1,3-dione], the EC50 is 39.8 to 251 nM.

Turning to `C=CCNCCN1C(=O)N2[C@H](c3cccc(O)c3)c3[nH]c4ccc(Br)cc4c3C[C@@]2(C)C1=O` (racemic) [Example 383, (3aSR,10RS)-2-(2-Allylamino-ethyl)-6-bromo-10-(3-hydroxy-phenyl)-3a-methyl-3a,4,9,10-tetrahydro-2,9,10a-triaza-cyclopenta[b]fluorene-1,3-dione], the EC50 is ≤ 39.8 nM.

In the case of `COc1cc2c3c([nH]c2cc1F)[C@@H](c1cccc(O)c1)N1C(=O)N(CCN(C)CCO)C(=O)[C@]1(C)C3` [Example 246, (3aS,10R)-7-Fluoro-2-{2-[(2-hydroxy-ethyl)-methyl-amino]-ethyl}-10-(3-hydroxy-phenyl)-6-methoxy-3a-methyl-3a,4,9,10-tetrahydro-2,9,10a-triaza-cyclopenta[b]fluorene-1,3-dione], the EC50 is 39.8 to 251 nM.

As for `C[C@@]12Cc3c([nH]c4ccc(Cl)cc34)[C@@H](c3cccc(O)c3)N1C(=O)N(CCCN1CC=CC1)C2=O` (racemic) [Example 173, (3aSR,10RS)-6-Chloro-2-[3-(2,5-dihydro-pyrrol-1-yl)-propyl]-10-(3-hydroxy-phenyl)-3a-methyl-3a,4,9,10-tetrahydro-2,9,10a-triaza-cyclopenta[b]fluorene-1,3-dione], the EC50 was ≤ 39.8 nM.

As to `C[C@@]12Cc3c([nH]c4cc(F)c(Cl)cc34)[C@@H](c3cccc(O)c3)N1C(=O)N(CCN1CCCC1)C2=O` (racemic) [Example 354, (3aSR,10RS)-6-Chloro-7-fluoro-10-(3-hydroxy-phenyl)-3a-methyl-2-(2-pyrrolidin-1-yl-ethyl)-3a,4,9,10-tetrahydro-2,9,10a-triaza-cyclopenta[b]fluorene-1,3-dione], the EC50 is ≤ 39.8 nM.

`CC(C)N(C)CCN1C(=O)N2[C@H](c3cccc(O)c3)c3[nH]c4ccc(OC(F)F)cc4c3C[C@@]2(C)C1=O` (racemic) [Example 278, (3aSR,10RS)-6-(1,1-Difluoro-methoxy)-10-(3-hydroxy-phenyl)-2-[2-(isopropyl-methyl-amino)-ethyl]-3a-methyl-3a,4,9,10-tetrahydro-2,9,10a-triaza-cyclopenta[b]fluorene-1,3-dione]: the EC50 was ≤ 39.8 nM.

For `C#CCN(C)CCN1C(=O)N2[C@H](c3cccc(O)c3)c3[nH]c4ccc(Br)cc4c3C[C@@]2(C)C1=O` (racemic) [Example 382, (3aSR,10RS)-6-Bromo-10-(3-hydroxy-phenyl)-3a-methyl-2-[2-(methyl-prop-2-ynyl-amino)-ethyl]-3a,4,9,10-tetrahydro-2,9,10a-triaza-cyclopenta[b]fluorene-1,3-dione], the EC50 is 39.8 to 251 nM.

As for `CN1CCN(CCCN2C(=O)N3[C@H](c4cccc(O)c4)c4[nH]c5ccc(OC(F)F)cc5c4C[C@@]3(C)C2=O)CC1` (racemic) [Example 240, (3aSR,10RS)-6-(1,1-Difluoro-methoxy)-10-(3-hydroyx-phenyl)-3a-methyl-2-[3-(4-methyl-piperazin-1-yl)-propyl]-3a,4,9,10-tetrahydro-2,9,10a-triaza-cyclopenta[b]fluorene-1,3-dione], the EC50 was 39.8 to 251 nM.

`COc1ccc2[nH]c3c(c2c1)C[C@@]1(C)C(=O)N(CCCNC(C)(C)C)C(=O)N1[C@@H]3c1cccc(O)c1` [Example 538, (3aS,10R)-2-(3-tert-Butylamino-propyl)-10-(3-hydroxy-phenyl)-6-methoxy-3a-methyl-3a,4,9,10-tetrahydro-2,9,10a-triaza-cyclopenta[b]fluorene-1,3-dione]: the EC50 is ≤ 39.8 nM.

As for `CN(C)CCCN1C(=O)N2[C@H](c3cccc(O)c3)c3[nH]c4cc(F)c(Cl)cc4c3C[C@@]2(C)C1=O` (racemic) [Example 335, (3aSR,10RS)-6-Chloro-2-(3-dimethylamino-propyl)-7-fluoro-10-(3-hydroxy-phenyl)-3a-methyl-3a,4,9,10-tetrahydro-2,9,10a-triaza-cyclopenta[b]fluorene-1,3-dione], the EC50 is 39.8 to 251 nM.

Regarding `C[C@@]12Cc3c([nH]c4ccc(Br)cc34)[C@@H](c3cccc(O)c3)N1C(=O)N(CCCN1CCCCC1)C2=O` (racemic) [Example 373, (3aSR,10RS)-6-Bromo-10-(3-hydroxy-phenyl)-3a-methyl-2-(3-piperidin-1-yl-propyl)-3a,4,9,10-tetrahydro-2,9,10a-triaza-cyclopenta[b]fluorene-1,3-dione], the EC50 is ≤ 39.8 nM.

For `C[C@@]12Cc3c([nH]c4ccc(OC(F)F)cc34)[C@@H](c3cccc(O)c3)N1C(=O)N(CCCNCCO)C2=O` (racemic) [Example 201, (3aSR,10RS)-6-(1,1-Difluoro-methoxy)-2-[3-(2-hydroxy-ethylamino)-propyl]-10-(3-hydroxy-phenyl)-3a-methyl-3a,4,9,10-tetrahydro-2,2,10a-triaza-cyclopenta[b]fluorene-1,3-dione], the EC50 was 39.8 to 251 nM.

In the case of `COc1cc2c3c([nH]c2cc1F)[C@@H](c1cccc(O)c1)N1C(=O)N(CCCN(C)CCO)C(=O)[C@]1(C)C3` (racemic) [Example 312, (3aSR,10RS)-7-Fluoro-2-{3-[(2-hydroxy-ethyl)-methyl-amino]-propyl}-10-(3-hydroyx-phenyl)-6-methoxy-3a-methyl-3a,4,9,10-tetrahydro-2,9,10a-triaza-cyclopenta[b]fluorene-1,3-dione], the EC50 was 39.8 to 251 nM.

On to `CC(C)CNCCN1C(=O)N2[C@H](c3cccc(O)c3)c3[nH]c4cc(F)c(Cl)cc4c3C[C@@]2(C)C1=O` (racemic) [Example 340, (3aSR,10RS)-6-Chloro-7-fluoro-10-(3-hydroxy-phenyl)-2-(2-isobutylamino-ethyl)-3a-methyl-3a,4,9,10-tetrahydro-2,9,10a-triaza-cyclopenta[b]fluorene-1,3-dione], for which the EC50 was 39.8 to 251 nM.

With `CCNCCCN1C(=O)N2[C@H](c3cccc(O)c3)c3[nH]c4cc(F)c(OC)cc4c3C[C@@]2(C)C1=O` (racemic) [Example 330, (3aSR,10RS)-2-(3-Ethylamino-propyl)-7-fluoro-10-(3-hydroxy-phenyl)-6-methoxy-3a-methyl-3a,4,9,10-tetrahydro-2,9,10a-triaza-cyclopenta[b]fluorene-1,3-dione], the EC50 was 39.8 to 251 nM.

Take `CC1CCN(CCCN2C(=O)N3[C@H](c4cccc(O)c4)c4[nH]c5ccc(OC(F)F)cc5c4C[C@@]3(C)C2=O)CC1` (racemic) [Example 244, (3aSR,10RS)-6-(1,1-Difluoro-methoxy)-10-(3-hydroxy-phenyl)-3a-methyl-2-[3-(4-methyl-piperidin-1-yl)-propyl]-3a,4,9,10-tetrahydro-2,9,10a-triaza-cyclopenta[b]fluorene-1,3-dione]: the EC50 was 39.8 to 251 nM.

For `CCNCCN1C(=O)N2[C@H](c3cccc(O)c3)c3[nH]c4cc(F)c(OC)cc4c3C[C@@]2(C)C1=O` (racemic) [Example 249, (3aSR,10RS)-2-(2-Ethylamino-ethyl)-7-fluoro-10-(3-hydroxy-phenyl)-6-methoxy-3a-methyl-3a,4,9,10-tetrahydro-2,9,10a-triaza-cyclopenta[b]fluorene-1,3-dione], the EC50 is ≤ 39.8 nM.

Turning to `CCOc1ccc2[nH]c3c(c2c1)C[C@@]1(C)C(=O)N(CCCN2CCCCC2)C(=O)N1[C@@H]3c1cccc(O)c1` (racemic) [Example 223, (3aSR,10RS)-6-Ethoxy-10-(3-hydroxy-phenyl)-3a-methyl-2-(3-piperidin-1-yl-propyl)-3a,4,9,10-tetrahydro-2,9,10a-triaza-cyclopenta[b]fluorene-1,3-dione], the EC50 is 39.8 to 251 nM.
